The text below walks through data of patent US8946413B2 (Pfizer Inc., priority 2008, dated 2015).

Like-named read-outs stand apart in the source and are kept apart here.

The target of the test is T1, CCR2 (Homo sapiens, UniProt P41597).
T1 construct: (leukophoresis pack); host or cells: human peripheral blood mononuclear cells (PBMCs) from a normal human leukophoresis pack
The test can be described thus: hCCR2 (125-I hMCP-1) small molecule binding assay on human PBMCs. The note with it: 125I-MCP-1, human PBMCs. From the text:
The CCR2 antagonist activity of compounds of the invention can be reported as the inhibitor concentration required for 50% inhibition (IC50 values) of specific binding in receptor binding assays using 125I-labeled MCP-1, as ligand, and Peripheral Blood Mononuclear Cells (PBMCs) prepared from normal human whole blood via density gradient centrifugation. Specific binding is defined as the total binding (e.g., total cpm on filters) minus the non-specific binding. Non-specific binding is defined as the amount of cpm still defected in the presence of excess unlabeled competitor (e.g., MCP-1),
Human PBMCs were used to test compounds of the invention in a binding assay. For example, 200,000 to 500,000 cells were incubated with 0.1 to 0.2 nM 125I-labeled MCP-1, with or without unlabeled competitor (10 nM MCP-1) or various concentrations of compounds to be tested. 125I-labeled MCP-1, were prepared by suitable methods or purchased from commercial vendors (Perkin Elmer, Boston Mass.). The binding reactions were performed in 50 to 250 μL of a binding buffer consisting of […] pH 7.2, and 0.1% BSA (bovine serum albumin), for 30 minutes at room temperature. The binding reactions were terminated by harvesting the membranes by rapid filtration through glass fiber filters (Perkin Elmer) which was presoaked in 0.3% polyethyleneimine or Phosphate Buffered Saline (PBS). The filters were rinsed with approximately 600 μL of binding buffer containing, 0.5 M NaCl or PBS, then dried, and the amount of bound radioactivity was determined by counting on a Gamma Counter (Perkin Elmer).
More specifically, the following assay may be employed to determine IC50 values for the compounds of the present invention.
hCCR2 (125-I hMCP-1) Small Molecule Binding Assay
Normal human leukophoresis pack contents, available from Biological Specialty Corporation, Colmar, Pa., is diluted 1:1 with PBS, divided into 50 ml conical tubes (preferably less than 40 mls per tube), and underlayed with 10 mls of Ficoll-Paque PLUS (GE Healthcare 17-1440-02). The tubes are centrifuged at 2800 rpm in a clinical centrifuge at room temperature for 30 mins, with no brake. The plasma layer is suctioned, and the buffycoat layer is collected. The collected buffycoat layer is washed twice with 50 mls PBS, and centrifuged at 1400 rpm with brake. The cells are counted. The cells are then diluted to 1×10^7 cells per ml in binding buffer.
96 well plates (such as, for example, Millipore MultiScreen96 plates) are pre-wet with about 100 μl binding buffer (RPMI+0.1% BSA+20 mM HEPES), and blotted just prior to compound addition.
5 μl of 50 μM test compounds in 100% DMSO are dotted onto U-bottom polypropylene 96-well plates.
245 μl per well of Binding Buffer is added to each well for 1 μM compound concentration in 2% DMSO.
50 μl of 1 μM compound is transferred to pre-wetted Millipore plates. 50 μl per well of 1×10E7 cells per ml of freshly prepared human PBMCs are added.
The samples are pre-incubated at room temperature for 30 minutes or 1 hour.
50 μl of 450 pM 125-I-hMCP-1 (Perkin-Elmer/NEN cat#NEX332025UC) is added for a final concentration 125-I-hMCP-1 of 150 pM per well.
The final test compound concentration is 0.333 uM in 150 μl total volume with 0.67% DMSO in all wells. Controls for this assay consist of 0% inhibition and 100% inhibition with 1 uM hMCP-1 (saturating conditions). All wells are run in duplicate. Controls may be in replicates of eight.
The samples are incubated at room temperature for 30 minutes.
The buffer is suctioned through the Millipore plates. The plates are washed three times with Wash Buffer (PRMI+0.1% BSA+20 mM HEPES+ 0.4 M NaC).
The plate underdrain is removed. The plate filters are allowed to dry. The filters are then punched out into plastic tubes.
Finally, the sample is counted an a Gamma Counter.
All IC50 plates were repeated for an n=2.
The following table summarizes the IC50 values identified through the described assay.

Setting [1] is: 1 hr preincubation, read-out: IC50 (nM) 1 hr preinc.
Where [2] appears, read: 30 min preincubation, read-out: IC50 (nM) 30 min preinc.

T1 sequence (P41597 whole entry): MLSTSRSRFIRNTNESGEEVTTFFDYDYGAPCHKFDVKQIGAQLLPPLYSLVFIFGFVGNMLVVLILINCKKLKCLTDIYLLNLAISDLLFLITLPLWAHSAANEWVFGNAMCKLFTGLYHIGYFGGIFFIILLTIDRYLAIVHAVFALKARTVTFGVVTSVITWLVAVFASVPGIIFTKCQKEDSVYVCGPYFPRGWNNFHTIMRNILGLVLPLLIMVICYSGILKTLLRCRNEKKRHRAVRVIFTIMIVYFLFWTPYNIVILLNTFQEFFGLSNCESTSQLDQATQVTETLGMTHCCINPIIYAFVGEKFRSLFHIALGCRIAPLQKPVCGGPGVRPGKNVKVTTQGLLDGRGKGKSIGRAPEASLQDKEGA

What is called IC50 is the concentration needed to halve the response being measured. For the compound `CO[C@@H]1COCC[C@@H]1N[C@@H]1CC[C@](CC(F)F)(C(=O)N2C[C@@H]3C[C@H]2CN3c2cc(C(F)(F)F)cnn2)C1` [Example 31, 1,5-anhydro-2,3-dideoxy-3-{[(1R,3S)-3-(2,2-difluoroethyl)-3-({(1S,4S)-5-[5-(trifluoromethyl)pyridazin-3-yl]-2,5-diazabicyclo[2.2.1]hept-2-yl}carbonyl)cyclopentyl]amino}-4-O-methyl-D-erythro-pentitol], under setting [1], the IC50 turned out to be 6.35 nM.

Take `CO[C@@H]1COCC[C@@H]1N[C@@H]1CC[C@](CC(F)(F)F)(C(=O)N2C[C@@H]3C[C@H]2CN3c2cc(C(F)(F)F)ncn2)C1` [Example 32, 1,5-anhydro-2,3-dideoxy-4-O-methyl-3-{[(1R,3S)-3-(2,2,2-trifluoroethyl)-3-({(1S,4S)-5-[6-(trifluoromethyl)pyrimidin-4-yl]-2,5-diazabicyclo[2.2.1]hept-2-yl}carbonyl)cyclopentyl]amino}-D-erythro-pentitol]: the half-inhibitory concentration (IC50) is, setting by setting: under setting [2], 13.8 nM; under setting [1], 11.7 nM.

`CO[C@@H]1COCC[C@@H]1N[C@@H]1CC[C@](CC(F)(F)F)(C(=O)N2C[C@@H]3C[C@H]2CN3c2cc(C(F)(F)F)ccn2)C1` [Example 33, 1,5-anhydro-2,3-dideoxy-4-O-methyl-3-{[(1R,3S)-3-(2,2,2-trifluoroethyl)-3-({(1S,4S)-5-[4-(trifluoromethyl)pyridin-2-yl]-2,5-diazabicyclo[2.2.1]hept-2-yl}carbonyl)cyclopentyl]amino}-D-erythro-pentitol]: the half-maximal inhibitory concentration (IC50) was 57.3 nM under setting [2] and 11.7 nM under setting [1]. On the same counts, the results for `CO[C@@H]1COCC[C@@H]1N[C@@H]1CC[C@](CC(F)(F)F)(C(=O)N2C[C@@H]3C[C@H]2CN3c2ccnc(C(F)(F)F)c2)C1` [Example 34, 1,5-anhydro-2,3-dideoxy-4-O-methyl-3-{[(1R,3S)-3-(2,2,2-trifluoroethyl)-3-({(1S,4S)-5-[2-(trifluoromethyl)pyridin-4-yl]-2,5-diazabicyclo[2.2.1]hept-2-yl}carbonyl)cyclopentyl]amino}-D-erythro-pentitol] are 66.5 nM and 6.94 nM. With `CO[C@@H]1COCC[C@@H]1N[C@@H]1CC[C@](CC(F)(F)F)(C(=O)N2C[C@@H]3C[C@H]2CN3c2nccc(C(F)(F)F)n2)C1` [Example 35, 1,5-anhydro-2,3-dideoxy-4-O-methyl-3-{[(1R,3S)-3-(2,2,2-trifluoroethyl)-3-({(1S,4S)-5-[4-(trifluoromethyl)pyrimidin-2-yl]-2,5-diazabicyclo[2.2.1]hept-2-yl}carbonyl)cyclopentyl]amino}-D-erythro-pentitol], the IC50 is, setting by setting: under setting [2], 28.4 nM; under setting [1], 5.52 nM. Regarding `CO[C@@H]1COCC[C@@H]1N[C@@H]1CC[C@](CC(F)(F)F)(C(=O)N2C[C@@H]3C[C@H]2CN3c2cccc(C(F)(F)F)n2)C1` [Example 36, 1,5-anhydro-2,3-dideoxy-4-O-methyl-3-{[(1R,3S)-3-(2,2,2-trifluoroethyl)-3-({(1S,4S)-5-[6-(trifluoromethyl)pyridin-2-yl]-2,5-diazabicyclo[2.2.1]hept-2-yl}carbonyl)cyclopentyl]amino}-D-erythro-pentitol], the IC50 is, setting by setting: under setting [2], 12.6 nM; under setting [1], 2.19 nM. Regarding `CO[C@@H]1COCC[C@@H]1N[C@@H]1CC[C@](CC(F)(F)F)(C(=O)N2C[C@@H]3C[C@H]2CN3c2cncc(C(F)(F)F)n2)C1` [Example 37], the IC50 under setting [1] was 3.68 nM. As to `CO[C@@H]1COCC[C@@H]1N[C@@H]1CC[C@](CC(F)(F)F)(C(=O)N2C[C@@H]3C[C@H]2CN3c2ccnc(C(F)(F)F)n2)C1` [Example 38, 1,5-anhydro-2,3-dideoxy-4-O-methyl-3-{[(1R,3S)-3-(2,2,2-trifluoroethyl)-3-({(1S,4S)-5-[2-(trifluoromethyl)pyrimidin-4-yl]-2,5-diazabicyclo[2.2.1]hept-2-yl}carbonyl)cyclopentyl]amino}-D-erythro-pentitol], the IC50 is, setting by setting: under setting [2], 68.7 nM; under setting [1], 2.02 nM.
